Measured values from patent US20110076236A1, “COMPOSITIONS AND METHODS OF TREATMENT USING MODULATORS OF MOTONEURON DISEASES” (Kinemed, Inc., priority 2008, published 2011).
“Also recorded” adds a separate entry of the source.

How the values were obtained:
SOD1-G93A TGN mice = assay: Clinical assessment (gait/stride length, onset, end stage) of SOD1-G93A TGN mice treated from presymptomatic stage; format: in vivo, mouse; settings: treatment from 7 weeks; for Mortality: age at death; for Onset of Motor Deficits: age at onset
Method: FIG. 6. Noscapine-MK801 combination delays onset of disease and death in SOD1-G93A TGN mice. The one and two-drug treatments were started at an early (i.e., presymptomatic) stage of disease (7 weeks). […] Mice received noscapine intraperitoneally and MK-801 in drinking water.
Female SOD-1 G93A TGN mice were obtained from Jackson laboratory (strain #2726). The controls were matched litter mates. Treatment groups were three per group. Noscapine was injected intraperitoneal in the thigh 3 times/week (0.2 mg/kg i.p.) and MK801 was administered continuously in drinking water (12 mg/kg/d). Gait analysis was done by the method of Wooley et al., Muscle Nerve 2005 32(1):43-50 and Carter et al. J. Neurosci., 19(8):3248-3257, hereby incorporated by reference in their entirety.
For clinical assessment endpoints scoring was selected as follows:
GROUP CLASSIFICATION: Presymptomatic
Clinical signs: Full mobility and no observable difference in behavior from age-matched controls (Gait or stride length analysis).
GROUP CLASSIFICATION: Onset
Clinical signs: Abnormal Gait or stride length analysis and hindlimb weakness: >40% reduction in stride length vs. age-matched littermates.
GROUP CLASSIFICATION: End Stage (euthanization)
Clinical signs: noticeable and complete hind limb paralysis (which in this strain occurs more on one limb than the other) and inability to right themselves in 5 sec time window. This stage starts usually as the mice are failing the gait analysis test and enter the End stage. Therefore, Transgenic SOD1-G93A TGN mice are euthanized at the onset of noticeable and complete hindlimb paralysis and inability to right themselves in 5 sec time window.

[1] = in vivo; cited from earlier work
[2] = test system: MT-mediated fast axonal transport; assay: MT-mediated fast axonal transport of 2H-label neuregulin-1 and chromogranin-B synaptic vesicle cargo (CSF secretion, spinal cord retention); format: in vivo, mouse; settings: 13 weeks SOD1 G93A mice; 3 weeks treatment, 100 mg/kg/d and 200 mg/kg/d
Method: After 3 weeks of treatment with MTMA noscapine (100 mg/kg/d and 200 mg/kg/d) an intraperitoneal pulse dose of 30-35 ml/kg ^2H2O CSF was given and CSF as well as spinal cord lumbar region were collected from 13 weeks wild type (WT) and symptomatic SOD1 G93A mice at 24, 48 and 72 h, respectively. CSF secretion rates and neuronal kinetic of retention of ^2H-label neuregulin-1 [NeuR-1] or ^2H-label chromogranin-B [Chr-B] containing synaptic vesicles were measured as described above (FIGS. 23 and 24). […] Neuroprotective actions of agents are evaluated by comparing their ability to normalize the time course, extent or pattern of appearance of labeled secreted synaptic vesicle “cargo” molecules in the body fluid or tissue sampled
As detailed in FIG. 25 (A) transgenic SOD G93A mice (representing an animal model of ALS), are given heavy water (^2H2O), to label secreted molecules in motor neurons (n=30 mice total). […] Protein-derived amino acids were derivatized to pentafluorobenzyl derivatives, and ^2H incorporation in alanine released from neuregulin-1 were measured by GC/MS. […] Protein-derived amino acids are derivatized to pentafluorobenzyl derivatives, and ^2H incorporation from ^2H2O into derivatized-alanine is measured by GC/MS, as described in detail elsewhere [Fanara, P. et al. In vivo measurement of microtubule dynamics using stable isotope labeling with heavy water. […]

C[C@]12N[C@H](Cc3ccccc31)c1ccccc12 [MK-801, Dizocilipine]
Mortality (SOD1-G93A TGN mice): 112 to 119 days
Onset of Motor Deficits (SOD1-G93A TGN mice): 105 to 112 days

COc1ccc2c(c1OC)C(=O)O[C@@H]2[C@H]1c2c(cc3c(c2OC)OCO3)CCN1C [Noscapine, noscapine]
blood brain barrier penetration [1]: penetrates the blood brain barrier
half-life in CNS tissue (brain and spinal cord) and PNS [1]: long half-life
fast axonal transport of 2H-label neuregulin-1 and chromogranin-B containing synaptic vesicles [2]: normalized MT-mediated fast axonal transport rates; also recorded: improves this delayed fast axonal transport
Mortality (SOD1-G93A TGN mice): 112 to 119 days
Onset of Motor Deficits (SOD1-G93A TGN mice): 98 to 105 days
